Where two headings read alike, the source gives them in different places.
Legend:
A-549 [1] = test: Inhibition of cell growth by counting cells, A-549; format: cell-based, human; settings: three days of incubation, read-out: IC50 (molar) A-549
Description: (§1) 1°.—Inhibition of Cell Growth by Counting Cells.
(§2) This form of the assay employs 24 well multidishes of 16 mm diameter (Bergeron, 1984; Schroeder, 1981). The tumor cell lines employed are: P-388 (ATCC CCL 46), suspension culture of a lymphoid neoplasm from a DBA/2 mouse; A-549 (ATCC CCL 185), monolayer culture of a human lung carcinoma; HT-29 (ATCC HTB-38), monolayer culture of a human colon carcinoma; MEL-28 (ATCC HTB-72), monolayer culture of a human melanoma and DU-145 (ATCC HTB-81), monolayer culture of a human prostate carcinoma.
(§3) Cells were maintained, in logarithmic phase of growth in Eagle's Minimum Essential Medium, with Earle's Balanced Salts, with non-essential amino acids, with 2.0 mM L-Glutamine, without sodium bicarbonate (EMEM/neaa), supplemented with 10% Fetal Calf Serum (FCS), 10^−2 M. sodium bicarbonate and 0.1 U/l penicillin G+0.1 g/l streptomycin sulfate. For the experiments, cells are harvested from subconfluent cultures using trypsin and resuspended in fresh medium before plating.
(§4) A-549, HT-29, MEL-28 and DU-145 cells were seeded into 16 mm diameter wells at 1×10^4 cells per well in 1 ml aliquots of EMEM 5% FCS containing different concentrations of the sample to be tested. A separate set of cultures without drug was seeded as control of growth, to ensure that cells remained in exponential phase of growth. All determinations are carrying out in duplicate. After three days of incubation at 37° C., 5% CO2 in a 98% humid atmosphere cells were stained with 0.1% crystal violet. An approximately IC50 was determined by comparing the growth in wells with drug to the growth in wells control.
(§5) For quantifying the activity, after the incubation time, cells are trypsinized and counted in a Coulter Counter ZM. All counts (net cells per well), represent the average of duplicate wells. % G, percent of growth relative to cultures without drug. The results of these assays are used to generate dose-response curves from which more precise IC50 values are determined (sample concentration which produces 50% cell growth inhibition).
(§6) Obtained results may predict the usefulness of a certain drug as a potential cancer treatment. For this technique, compounds which show IC50 values smaller than 1 μg/ml are selected to continue with further studies. IC50's data allow to predict that not only could a drug be cystostatic, but also it could have a potential in terms of tumor reduction.

HT-29 [2] = test: Inhibition of cell growth by counting cells, HT-29; format: cell-based, human; settings: three days of incubation, read-out: IC50 (molar) HT-29
Description: as §1, §2, §3, §4, §5, §6

A-549 [3] = test: Inhibition of cells growth by colorimetric assay (SRB), A-549; format: cell-based
Description: (§7) 2°.—Inhibition of Cells Growth by Colorimetric Assay.
(§8) A colorimetric type of assay, using sulforhodamine B (SRB) reaction has been adapted for a quantitative measurement of cell growth and viability [following the technique described by Philip Skehan, et al. (1990), New colorimetric cytotoxicity assay for anticancer drug screening, J. Natl. Cancer Inst., 82:1107-1112]
(§9) This form of the assay employs 96 well cell culture microplates of 9 mm diameter (Faircloth, 1988; Mosmann, 1983). Most of the cell lines are obtained from American Type Culture Collection (ATCC) derived from different human cancer types.
(§10) Cells are maintained in RPMI 1640 10% FBS, supplemented with 0.1 g/l penicillin and 0.1 g/l streptomycin sulfate and then incubated at 37° C., 5% CO2 and 98% humidity. For the experiments, cells were harvested from subconfluent cultures using trypsin and resuspended in fresh medium before plating.
(§11) Cells are seeded in 96 well microtiter plates, at 5×10^3 cells per well in aliquots of 195 μl medium, and they are allowed to attach to the plate surface by growing in drug free medium for 18 hours. Afterward, samples are added in aliquots of 5 μl in a ranging from 10 to 10^−8 μg/ml, dissolved in DMSO/EtOH/PBS (0.5:0.5:99). After 48 hours exposure, the antitumor effect are measured by the SRB methodology: cells are fixed by adding 50 μl of cold 50% (wt/vol) trichloroacetic acid (TCA) and incubating for 60 minutes at 4° C. Plates are washed with deionized water and dried. One hundred μl of SRB solution (0.4% wt/vol in 1% acetic acid) is added to each microtiter well and incubated for 10 minutes at room temperature. Unbound SRB is removed by washing with 1% acetic acid. Plates are air dried and bound stain is solubilized with Tris buffer. Optical densities are read on a automated spectrophotometric plate reader at a single wavelength of 490 nm.
(§12) The values for mean+/−SD of data from triplicate wells are calculated. Some parameters for cellular responses can be calculated: GI=growth inhibition, TGI=total growth inhibition (cytostatic effect) and LC=cell killing (cytotoxic effect).
as §6, with “GI50” for “IC50”, “10” for “1”, “GI50's” for “IC50's”

HT-29 [4] = test: Inhibition of cells growth by colorimetric assay (SRB), HT-29; format: cell-based
Description: as §7, §8, §9, §10, §11, §12
as §6, with “GI50” for “IC50”, “10” for “1”, “GI50's” for “IC50's”

[5] = Homo sapiens, A549, 48 h, read-out: A-549 GI50
[6] = Homo sapiens, A549, 48 h, read-out: A-549 LC50, A-549, SRB, 48 hours exposure
[7] = Homo sapiens, HT-29, 48 h, read-out: HT-29 GI50
[8] = Homo sapiens, HT-29, 48 h, read-out: HT-29 LC50, HT-29, SRB, 48 hours exposure

COc1cc2c(cc1O)CCN[C@]21CS[C@@H]2c3c(OCc4ccccc4)c(C)c4c(c3[C@H](COC1=O)N1C2[C@H]2c3c(cc(C)c(OC)c3OCc3ccccc3)C[C@@H]([C@@H]1O)N2C)OCO4 (some centres unmarked) [Compound 181]
IC50 (A-549 [1]; Homo sapiens, A549, 72 h): 0.0111 µM | IC50 (HT-29 [2]; Homo sapiens, HT-29, 72 h): 0.0111 µM

CCCC(=O)Oc1c(C)c2c(c3c1[C@H]1SC[C@]4(NCCc5cc(OC(=O)OC(C)(C)C)c(OC)cc54)C(=O)OC[C@@H]3N3C1[C@H]1c4c(cc(C)c(OC)c4OC(=O)CCC)C[C@@H]([C@@H]3C#N)N1C)OCO2 (some centres unmarked) [Compound 112]
IC50 (A-549 [1]; Homo sapiens, A549, 72 h): 0.0103 µM | IC50 (HT-29 [2]; Homo sapiens, HT-29, 72 h): 0.0103 µM

COc1cc2c(cc1OC(=O)OC(C)(C)C)CCN[C@]21CS[C@@H]2c3c(OC(=O)/C=C/c4ccccc4)c(C)c4c(c3[C@H](COC1=O)N1C2[C@H]2c3c(cc(C)c(OC)c3OC(=O)/C=C/c3ccccc3)C[C@@H]([C@@H]1C#N)N2C)OCO4 (some centres unmarked) [Compound 114]
IC50 (A-549 [1]; Homo sapiens, A549, 72 h): 0.00918 µM | IC50 (HT-29 [2]; Homo sapiens, HT-29, 72 h): 0.00918 µM

COc1cc2c(cc1OC(=O)OC(C)(C)C)CCN[C@]21CS[C@@H]2c3c(OC)c(C)c4c(c3[C@H](COC1=O)N1C2[C@H]2c3c(cc(C)c(OC)c3O)C[C@@H]([C@@H]1C#N)N2C)OCO4 (some centres unmarked) [Compound 126]
IC50 (A-549 [1]): 0.000119 µM | IC50 (HT-29 [2]): 0.000119 µM

COc1cc2c(cc1O)CCN[C@]21CS[C@@H]2c3c(OC(=O)C(F)(F)C(F)(F)C(F)(F)F)c(C)c4c(c3[C@H](COC1=O)N1C2[C@H]2c3c(cc(C)c(OC)c3O)C[C@@H]([C@@H]1C#N)N2C)OCO4 (some centres unmarked) [Compound 143]
A-549 TGI (A-549 [3]; A-549, SRB, 48 hours exposure): 4.32E-08 | GI50 (A-549 [3]; [5]): 0.0216 µM | LC50 (concentration for 50% cell killing) (A-549 [3]; [6]): 0.108 µM | HT-29 TGI (HT-29 [4]; HT-29, SRB, 48 hours exposure): 1.08E-08 | GI50 (HT-29 [4]; [7]): 0.0108 µM | LC50 (concentration for 50% cell killing) (HT-29 [4]; [8]): 10.8 µM

C=COC(=O)Oc1cc2c(cc1OC)[C@@]1(CS[C@@H]3c4c(OC(C)=O)c(C)c5c(c4[C@H](COC1=O)N1C3[C@H]3c4c(cc(C)c(OC)c4OC(=O)OC=C)C[C@@H]([C@@H]1C#N)N3C)OCO5)NCC2 (some centres unmarked) [Compound 30]
TGI A-549 (A-549 [3]; A-549, SRB, 48 hours exposure): 5.49E-08 | GI50 (A-549 [3]; Homo sapiens, A549, 48 h, A-549, SRB, 48 hours exposure, read-out: GI50 A-549): 0.0329 µM | LC50 (concentration for 50% cell killing) (A-549 [3]; Homo sapiens, A549, 48 h, read-out: LC50 A-549, A-549, SRB, 48 hours exposure): 3.29 µM | TGI HT-29 (HT-29 [4]; HT-29, SRB, 48 hours exposure): 8.78E-08 | GI50 (HT-29 [4]; Homo sapiens, HT-29, 48 h, HT-29, SRB, 48 hours exposure, read-out: GI50 HT-29): 0.0878 µM | LC50 (concentration for 50% cell killing) (HT-29 [4]; Homo sapiens, HT-29, 48 h, read-out: LC50 HT-29, HT-29, SRB, 48 hours exposure): 11 µM

C=COC(=O)Oc1c(C)c2c(c3c1[C@H]1SC[C@]4(NCCc5cc(OC(=O)OC(C)(C)C)c(OC)cc54)C(=O)OC[C@@H]3N3C1[C@H]1c4c(cc(C)c(OC)c4O)C[C@@H]([C@@H]3C#N)N1C)OCO2 (some centres unmarked) [Compound 118]
A-549 TGI (A-549 [3]; A-549, SRB, 48 hours exposure): 8.90E-08 | GI50 (A-549 [3]; [5]): 0.00334 µM | LC50 (concentration for 50% cell killing) (A-549 [3]; [6]): 2.22 µM | HT-29 TGI (HT-29 [4]; HT-29, SRB, 48 hours exposure): 7.79E-09 | GI50 (HT-29 [4]; [7]): 0.00779 µM | LC50 (concentration for 50% cell killing) (HT-29 [4]; [8]): 11.1 µM

COc1cc2c(cc1OC(=O)OC(C)(C)C)CCNC21CSC2c3c(OC(=O)CCCCC4SCC5NC(=O)NC54)c(C)c4c(c3C(COC1=O)N1C(C#N)C3Cc5cc(C)c(OC)c(O)c5C(C21)N3C)OCO4 (centres unmarked) [Compound 123]
A-549 TGI (A-549 [3]; A-549, SRB, 48 hours exposure): 2.09E-08 | GI50 (A-549 [3]; A-549, SRB, 48 hours exposure, read-out: A-549 GI50): 0.00733 µM | LC50 (50% lethal concentration) (A-549 [3]; A-549, SRB, 48 hours exposure, read-out: A-549 LC50): 0.0733 µM | HT-29 TGI (HT-29 [4]; HT-29, SRB, 48 hours exposure): 3.14E-09 | GI50 (HT-29 [4]; HT-29, SRB, 48 hours exposure, read-out: HT-29 GI50): 0.00314 µM | CC50 (HT-29 [4]; HT-29, SRB, 48 hours exposure, read-out: HT-29 LC50): 0.0314 µM

COc1cc2c(cc1O)CCN(C)[C@]21CS[C@@H]2c3c(OC(C)=O)c(C)c4c(c3[C@H](COC1=O)N1C2[C@H]2c3c(cc(C)c(OC)c3O)C[C@@H]([C@@H]1C#N)N2C(=O)OC(C)(C)C)OCO4 (some centres unmarked) [Compound 200]
GI50 (A-549 [3]; Homo sapiens, A549, 48 h, SRB assay, 48 hours exposure, read-out: A-549 GI50): 0.023 µM | LC50 (concentration for 50% cell killing) (A-549 [3]; Homo sapiens, A549, 48 h, read-out: A-549 LC50, SRB assay, 48 hours exposure): 0.115 µM | A-549 TGI (A-549 [3]; SRB assay, 48 hours exposure): 3.45E-08 | GI50 (HT-29 [4]; Homo sapiens, HT-29, 48 h, SRB assay, 48 hours exposure, read-out: HT-29 GI50): 0.023 µM | LC50 (concentration for 50% cell killing) (HT-29 [4]; Homo sapiens, HT-29, 48 h, read-out: HT-29 LC50, SRB assay, 48 hours exposure): 1.15 µM | HT-29 TGI (HT-29 [4]; SRB assay, 48 hours exposure): 8.05E-09

From US7759345B2, “Antitumoral derivatives of ET-743” (priority 2001, dated 2010)
